Measured values as given in article PMC7830597, “Derivatives of Tenuazonic Acid as Potential New Multi-Target Anti-Alzheimer’s Disease Agents” (Biomolecules, 2021).
“Also recorded” adds a separate entry of the source. Like-named read-outs stand apart in the source and are kept apart here.

Experiments:
Aβ1-42 [1] = biological target: T1, Aβ1-42 (Homo sapiens, UniProt P05067); experiment: biochemical; details: for Inhib. Aβ Aggreg. Self-Induced: 40 µM; for inhibition at 40 µM: read-out: Inhib. Aβ Aggreg. Self-Induced
T1 construct: Amyloid β peptide (Aβ1-42) was purchased from GeneCust as a lyophilised powder; purchased GeneCust
T1 sequence (P05067 672-713 limits assumed): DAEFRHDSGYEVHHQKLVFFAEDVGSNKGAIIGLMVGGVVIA
Protocol: The anti-amyloidogenic activity of all the compounds was also evaluated in vitro, in the absence and in presence of Cu(II), by measuring the fluorescence emission of Thioflavin T (ThT).
The spectrofluorimetric method, based on the fluorescence emission of thioflavin T (ThT), was used to study the Aβ1-42 aggregation inhibition. Firstly, Aβ1-42 was dissolved in HFIP (1,1,1,3,3,3-Hexafluoro-2-propanol) and kept overnight at room temperature in order to obtain a dry film. […] The ligand solutions were prepared with MeOH (1mg/mL) and further with phosphate buffer. […] As a control, a solution of 30 μL of phosphate buffer and 30 μL of Aβ1-42 was used to observe the aggregation without any inhibition, while the ligand assay solutions were composed of 20 μL of phosphate buffer, 30 μL of Aβ1-42 and 10 μL of ligand. The Cu-induced aggregation studies were similarly conducted, adding 10 μL of CuCl2 to induce the fibril aggregation. Each experiment was composed of an assay and a blank sample, where the blank sample lacks Aβ1-42, to monitor the effect of the compounds on the fluorescence emission. The samples were left to incubate in a CERTOMAT WR water bath for 24 h at 37 °C with shaking. After 24 h, a Glycine-NaOH buffer (pH = 8.5) containing ThT were added to each sample in a microplate. The fluorescence signal was monitored at 446 nm (λexc) and 486 nm (λem) with a Varian Cary Eclipse fluorimeter. Amyloid β peptide (Aβ1-42) was purchased from GeneCust as a lyophilised powder and stored at −20 °C [12, 13, 14].

[2] = tested on: SH-SY5Y human neuroblastoma cells; experiment: Dose-response cell viability screening, MTT reduction assay; type: cell-based; details: for highest non-toxic concentration (selected concentration): SH-SY5Y cells exposed for 25 h
Protocol: (§1) SH-SY5Y human neuroblastoma cells (ATCC-CRL-2266) were seeded in DMEM/F12 (Dulbecco’s Modified Eagle Medium/Ham’s F-12 Nutrient Mixture; Thermo Fisher Scientific) with 10% heat inactivated fetal bovine serum, 50 U/mL penicillin and 50 U/mL streptomycin under a humidified atmosphere with 95% relative humidity at 37 °C at a 0.16 × 10^6 cells/mL density. Stock solutions from tested compounds (1, 2, 4 and 5) were prepared in DMSO at a 25 mM concentration and stored at −20 °C until needed. In order to select the highest non-toxic concentration, a dose-response screening was performed, where SH-SY5Y cells were exposed to the compounds for 25 h. The selected concentrations for each compound were: 75 µM final concentration for 1 and 2; 10 µM final concentration for 4 and 20 µM final concentration for 5. […] For the neuroprotection assays, the selected compounds were added to the cell media 1 hour prior to the incubation with Aβ1-42 or L-ascorbic acid/ferrous sulphate. Aβ1-42 or L-ascorbic acid/ferrous sulphate treatment was maintained for another 24 h. Aβ1-42 was prepared as 276.9 µM stock in sterile water and administrated in the medium at a 2.5 µM final concentration. Ferrous sulphate was freshly prepared as 0.36 M stock in water and added to the medium at 2.5 mM final concentration. L-ascorbic acid was freshly prepared as 80 mM stock in water and added to the medium at 5 mM final concentration. Aβ1-42 was purchased from Bachem (Torrance, CA, USA) and ferrous sulphate and L-ascorbic acid from Sigma Chemical Co (St. Louis, MO, USA).
(§2) Cell viability was measured by using the MTT (3-(4,5-dimethylthiazol-2-yl)-2,5-diphenyl tetrazolium bromide) reduction assay. This test is based on the presence of succinate dehydrogenase enzyme in viable cells, that allows them to metabolize MTT into a formazan. After treatment, the medium was removed, and cells were washed with 1x PBS one time to remove dead cells. 200 µL of MTT solution (0.5 mg/mL) was added to each well and incubated for 2 h protected from light. Formazan precipitates were then dissolved in DMSO and absorbance measured at 570 nm. The ability to reduce MTT was expressed as a percentage of untreated control cells.
Figure 10 Dose-response screening of compounds 1, 2, 4 and 5 on SH-SY5Y neuronal cell line. Overnight cultures were treated with a range of concentrations from 10 μM to 100 μM for 24 h and cellular viability was determined by employing the MTT reduction assay.

[3] = biological target: AChE of electroforus electricus (electric eel) (Electrophorus electricus, UniProt O42275); experiment: biochemical; details: mean of three independent experiments ± SEM
AChE of electroforus electricus (electric eel), sequence (O42275 24-633): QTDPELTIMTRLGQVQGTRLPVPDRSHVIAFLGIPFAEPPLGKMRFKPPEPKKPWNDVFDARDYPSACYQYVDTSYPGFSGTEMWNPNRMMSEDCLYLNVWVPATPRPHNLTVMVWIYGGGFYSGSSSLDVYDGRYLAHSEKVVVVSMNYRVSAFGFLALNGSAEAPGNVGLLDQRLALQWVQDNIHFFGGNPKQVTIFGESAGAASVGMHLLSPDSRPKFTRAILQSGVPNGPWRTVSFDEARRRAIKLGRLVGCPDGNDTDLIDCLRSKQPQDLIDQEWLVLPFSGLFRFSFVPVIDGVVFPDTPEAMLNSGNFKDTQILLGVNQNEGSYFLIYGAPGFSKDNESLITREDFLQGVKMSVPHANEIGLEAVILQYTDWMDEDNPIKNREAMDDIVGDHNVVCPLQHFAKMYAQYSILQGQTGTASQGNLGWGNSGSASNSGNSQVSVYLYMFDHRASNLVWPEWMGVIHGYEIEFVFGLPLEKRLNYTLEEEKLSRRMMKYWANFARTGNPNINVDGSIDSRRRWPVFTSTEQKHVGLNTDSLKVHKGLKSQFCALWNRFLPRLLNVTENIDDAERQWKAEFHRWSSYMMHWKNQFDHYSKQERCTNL
Protocol: All new racemic compounds were tested as acetylcholinesterase inhibitors via an in vitro assay, following a modification of Ellman’s method in three independent experiments, using tacrine as a reference compound. […] Enzyme inhibition assays were performed using an adaptation of Ellman’s method. The readings were made in a spectrophotometer Perkin-Elmer Lambda 35 UV-Vis. Enzyme activity is measured by following the increase in yellow color produced from thiocholine when it reacts with dithiobisnitrobenzoate ion (DTNB). DTNB solution was obtained dissolving the reagent in HEPES buffer with salts, namely NaCl (50 mM) and MgCl2 (20 mM), obtaining a 3 mM solution. The enzyme AChE of electroforus electricus (electric eel) stock (500 U) was dissolved in TRIS 50 mM, pH 8.0, being posteriorly diluted to assay concentrations (5 U), obtaining an aliquot of 1 mL. The enzyme substrate used was acetylthiocholine iodide (AThCh, 16 mM), which was prepared with deionized water. The compounds tested were diluted in MeOH or DMSO (1 mg/mL, 2–7 × 10^−3 M), with further dilution, and five different concentrations were used for each compound, obtaining different percentages of AChE inhibition. The assay consists in the addition of HEPES (50 mM, pH = 8), inhibitor, AChE and MeOH in a 1 mL cuvette. The mixture was left to incubate for 15 min and, after that, AThCh and DTNB were added. The enzymatic reaction was followed through the measurements of absorbencies at 405 nm (Perkin Elmer Lambda 35 spectrophotometer equipped with a temperature programmer PTP 1þ1 Peltier System, using thermostated (T = 25.0 ± 0.1 °C) 1 cm path length cells) during 5 min. A blank solution containing all the components except the enzyme, that was substituted for equal volume of HEPES, was used. A control reaction was used using MeOH instead of the new compounds and was considered the reaction corresponding to 100% enzymatic activity. Each assay was performed in quintupled.

[4] = tested on: SH-SY5Y human neuroblastoma cells; experiment: Neuroprotection against ferrous sulfate/L-ascorbic acid insult, MTT; type: cell-based; details: Fe/Asc 24 h; 1 h pre-incubation; compound 5 20 µM
Protocol: SH-SY5Y human neuroblastoma cells (ATCC-CRL-2266) were seeded in DMEM/F12 (Dulbecco’s Modified Eagle Medium/Ham’s F-12 Nutrient Mixture; Thermo Fisher Scientific) with 10% heat inactivated fetal bovine serum, 50 U/mL penicillin and 50 U/mL streptomycin under a humidified atmosphere with 95% relative humidity at 37 °C at a 0.16 × 10^6 cells/mL density. Stock solutions from tested compounds (1, 2, 4 and 5) were prepared in DMSO at a 25 mM concentration and stored at −20 °C until needed. In order to select the highest non-toxic concentration, a dose-response screening was performed, where SH-SY5Y cells were exposed to the compounds for 25 h. The selected concentrations for each compound were: 75 µM final concentration for 1 and 2; 10 µM final concentration for 4 and 20 µM final concentration for 5. […]
Cell viability was measured by using the MTT (3-(4,5-dimethylthiazol-2-yl)-2,5-diphenyl tetrazolium bromide) reduction assay. […] Formazan precipitates were then dissolved in DMSO and absorbance measured at 570 nm. The ability to reduce MTT was expressed as a percentage of untreated control cells.
Figure 12 Neuroprotective effect of compounds after Ferrous Sulfate (Fe)/L-Ascorbic Acid (AscH(-)) insult. […] Cellular viability was determined by employing the MTT reduction assay. […]

[5] = tested on: SH-SY5Y human neuroblastoma cells; experiment: Neuroprotection against Aβ1-42-induced toxicity, MTT; type: cell-based; details: Aβ1-42 2.5 μM 24 h; 1 h pre-incubation; compounds 1, 2 100 µM; 4 10 µM; 5 20 µM
Protocol: as §1, §2
Overnight cultures were treated with Aβ1-42 peptide (2.5 μM) for 24 h in the absence or in the presence of the compounds. When compounds were present, a pre-incubation of 1 h preceded the Aβ1-42 treatment. Cellular viability was determined by employing the MTT reduction assay. […] (compounds: 1, 2–100 µM; 4–10 µM; 5–20 µM).

[6] = Radical scavenging activity, DPPH method; details: DPPH assay; mean ± SEM of 3 independent experiments
Protocol: Therefore, they were assayed for radical scavenging activity using the DPPH method.
The final volume of the assay was 3.5 mL, corrected with MeOH to obtain different concentrations of our compound in each assay. The control solution was composed of MeOH and DPPH [14]. After 30 min, at RT, protected from light, the absorbance was measured at 517 nm (Perkin Elmer Lambda 35 spectrophotometer equipped with a temperature programmer PTP 1þ1 Peltier System, using thermostated (T¼25.0 ± 0.1 °C) 1 cm path length cells), against a blank solution (MeOH). The assays were performed in triplicate, in which the EC50 was obtained through the graphical representation of the %AA vs. the inhibitor concentration.

Aβ1-42 [7] = biological target: T1, Aβ1-42; experiment: Inhibition of Cu2+-induced Aβ1-42 aggregation, thioflavin T fluorescence; type: biochemical; details: inhibitor 40 µM, copper 40 µM
Protocol: The anti-amyloidogenic activity of all the compounds was also evaluated in vitro, in the absence and in presence of Cu(II), by measuring the fluorescence emission of Thioflavin T (ThT). […] The Aβ self-aggregation inhibitory activity shown by all compounds is higher than that of parent compound TA, with the exception of compound 2 (probably due to solubility issues at the experimental conditions of the assays). The fact that the reference value previously reported by us for TA (50 ± 8%) was obtained for quite different conditions, including a much higher inhibitor concentration (100 μM instead of 40 μM) is noteworthy. […] This may be due to different electronic contributions between the ketone and the ester functions. Therefore, the ester derivatives seem to be better chelators compared to TA.
The spectrofluorimetric method, based on the fluorescence emission of thioflavin T (ThT), was used to study the Aβ1-42 aggregation inhibition. Firstly, Aβ1-42 was dissolved in HFIP (1,1,1,3,3,3-Hexafluoro-2-propanol) and kept overnight at room temperature in order to obtain a dry film. Then, the film was re-dissolved in CH3CN-Na2CO3 (300μM)/NaOH (250μM) (48.3/48.3/3.4 mL v/v/v) and then phosphate buffer (pH = 8) was added. The ligand solutions were prepared with MeOH (1mg/mL) and further with phosphate buffer. For the inhibition studies of copper-induced Aβ aggregation, a solution of CuCl2 240 μM was used. As a control, a solution of 30 μL of phosphate buffer and 30 μL of Aβ1-42 was used to observe the aggregation without any inhibition, while the ligand assay solutions were composed of 20 μL of phosphate buffer, 30 μL of Aβ1-42 and 10 μL of ligand. The Cu-induced aggregation studies were similarly conducted, adding 10 μL of CuCl2 to induce the fibril aggregation. Each experiment was composed of an assay and a blank sample, where the blank sample lacks Aβ1-42, to monitor the effect of the compounds on the fluorescence emission. The samples were left to incubate in a CERTOMAT WR water bath for 24 h at 37 °C with shaking. After 24 h, a Glycine-NaOH buffer (pH = 8.5) containing ThT were added to each sample in a microplate. The fluorescence signal was monitored at 446 nm (λexc) and 486 nm (λem) with a Varian Cary Eclipse fluorimeter. Amyloid β peptide (Aβ1-42) was purchased from GeneCust as a lyophilised powder and stored at −20 °C [12, 13, 14].

[8] = set-up: method as in literature; details: value reported in the literature; ref literature; cited from earlier work
Aβ1-42 [9] = biological target: T1, Aβ1-42; set-up: method as in PMID 30158491; details: Cinhibitor = 100 µM; cited from earlier work
[10] = set-up: method as in PMID 30158491; details: DPPH assay; cited from earlier work
[11] = Aβ1-42, inhibitor 40 µM, SEM < 10%
[12] = AChE from electric eel, read-out: eeAChEi IC50

## CC(C)C1NC(=O)C=C1NCCN1CCN(Cc2ccccc2)CC1 (stereo not shown) [Compound 5, 4-((2-(4-Benzylpiperazin-1-yl)ethyl)amino)-5-isopropyl-1,5-dihydro-2H-pyrrol-2-one]
Aβ1-42 [1]; [11]
  Inhib. Aβ Aggreg. Self-Induced: 78.4%
  inhibition at 40 µM: 72 to 78.4%
[2]; 10 μM to 100 μM, 24 h, at the active concentrations
  cytotoxicity on SH-SY5Y cell line: non-cytotoxic; also recorded: do not show (except for compound 4) cytotoxicity
[2]
  highest non-toxic concentration (selected concentration): 20 µM
[3]; [12]
  IC50: 24 ± 3 µM
[4]
  neuroprotection against Fe/Asc challenge: conferred neuroprotection against the Fe/Asc challenge
[5]
  protection against Aβ1-42-induced toxicity: do not confer protection; also recorded: not able to directly protect SH-SY5Y cells from Aβ1-42-induced cell toxicity
[6]
  Antioxidant Activity EC50: >30 µmol/µmol of DPPH

## CCOC(=O)C1=C(O)C(C)NC1=O (stereo not shown) [Compound 3, Ethyl 4-hydroxy-5-methyl-2-oxo-2,5-dihydro-1H-pyrrole-3-carboxylate]
Aβ1-42 [1]; [11]
  inhibition at 40 µM: 57.4%
[3]; [12]
  IC50: 44 ± 4 µM
Aβ1-42 [7]; read-out: Inhib. Aβ Aggreg. Cu2+-Induced
  inhibition at 40 µM: 63.8%
[6]
  Antioxidant Activity EC50: >30 µmol/µmol of DPPH

## Nc1c2c(nc3ccccc13)CCCC2 [Tacrine, reference compound]
Aβ1-42 [1]
  inhibition at 40 µM: 31.2%

## O=C1C=C(NCCN2CCN(Cc3ccccc3)CC2)C(Cc2ccccc2)N1 (stereo not shown) [Compound 4, 5-Benzyl-4-((2-(4-benzylpiperazin-1-yl)ethyl)amino)-1,5-di-hydro-2H-pyrrol-2-one]
Aβ1-42 [1]; [11]
  Inhib. Aβ Aggreg. Self-Induced: 72.0%
  inhibition at 40 µM: 72 to 78.4%
[2]
  highest non-toxic concentration (selected concentration): 10 µM
[3]; [12]
  IC50: 16 ± 2 µM
[5]
  protection against Aβ1-42-induced toxicity: do not confer protection
[6]
  Antioxidant Activity EC50: >30 µmol/µmol of DPPH

## CC[C@H](C)[C@@H]1NC(=O)C(C(C)=O)=C1O (stereo in doubt) [Tenuazonic acid]
[8]
  log K (protonation constant): 3.523
Aβ1-42 [9]
  Inhib. Aβ Aggreg. Self-Induced: 50 ± 8%
Aβ1-42 [1]; [11]
  inhibition at 40 µM: 25.2%
[3]; eeAChEi IC50, AChE from electric eel
  IC50: 65 ± 4 µM
Aβ1-42 [7]
  Inhib. Aβ Aggreg. Cu2+-Induced: did not demonstrate a significant difference of effect
[10]
  Antioxidant Activity EC50: - 2.6 ± 0.2 [19] µmol/µmol of DPPH
